Laboratory results reported in US20120184624A1, “Treatment of Alzheimer's Disease” (priority 2010, published 2012).

Legend:
tau = format: cell-based, mouse
Experimental: (§1) Primary cortical neurons were isolated from brain of wt or transgenic (Mapt^tm1(EGFP)klt Tg(MAPT)8cPdav/J; Jackson Laboratory) embryos at day 14.5. Cortices were collected in DMEM (Lonza) and cells were dissociated by incubation with Trypsin/EDTA for 6.5 min at 37° C. Cells were then diluted in neurobasal medium (Gibco-BRL) containing B27 supplement (Gibco BRL). Cells were plated at a density of 4.0×10^5 onto 0.2 mg/ml poly-D-lysin (Sigma) and 2 μg/ml Laminin (Sigma) coated 12 well plates. Neurons were incubated at 37° C. with 8% CO2. One hour after seeding a complete change of medium was performed. Later on, each 96 hours half volumes of the medium were replaced by fresh medium. After 7 days in culture neurons were treated.
(§2) Cells were incubated with the respective substances as follows: Metformin (Sigma) at final concentrations up to 2.5 mM for 1 to >24 hours, okadaic acid (Sigma) at final concentrations from 1 nM to 10 nM for 4 h, Fostricien (Sigma) at final concentration of 1 μM for 4 h and AICAR (cell signalling) at final concentration of 5 mM for 0.5-16 h. For cell treatment without insulin, medium containing B27+insulin supplement was replaced with medium containing B27-supplement without insulin 24 h before treatment. 3 groups of 2 mice were treated with or without 5 mg/l metformin in the drinking water.
(§3) Cell pellets were homogenized in Magic-Mix (48% UREA, 15 mM Tris-HCL pH 7.5, 8.7% Glycerin, 1% SDS, 0.004% Bromphenolblue, 143 mM Mercaptoethanol), sonicated and boiled for 5 min at 95° C. Proteins were resolved on 8 or 10% SDS gels and blotted onto PVDF-membranes (Roche). Antibodies used in this study were purchased from the following companies: Tau-5 (Biosource), anti-human PHF pSer202 (Thermo scientific), Tau pSer356 (Biosource), Tau pSer262 (Biosource), Tau pSer396 (Sigma), Actin (Sigma), ACC (cell signalling), ACC pSer79 (cell signalling), phospho-S6 ribosomal protein pSer241/244 (cell signalling), p70S6 Kinase (cell signalling), p70S6K pThr421/pSer424 (cell signalling), mTOR (cell signalling), AMPK (cell signallling, AMPK pThr172 (cell singnaling), HRP-anti-rabbit (Amersham), HRP-anti-mouse (Dianova). The resulting bands were quantified using Imagequant5.2. Statistical analyses were performed using SigmaStat software package (v 3.0, SPSS, USA). For timecourse or dose-response studies, data were analyses by one-way ANOVA with post hoc Dunnett's or Bonferonni test to accommodate for multiple comparisons. A Student's t-test was used for two-group comparisons, as appropriate.

ACC = assay: Phosphorylation of the AMPK target ACC (Ser79) in primary cortical neurons; format: cell-based, mouse; conditions: 5 mM AICAR, increasing time intervals
Experimental: as §1
as §2, with “3 groups of 2 mice were treated with or without 5 mg/l metformin in the drinking water.” left out
as §3, with “Proteins were resolved on 8 or 10% SDS gels and blotted onto PVDF-membranes (Roche).” left out, “Statistical analyses were performed using SigmaStat software package (v 3.0, SPSS, USA). For timecourse or dose-response studies, data were analyses by one-way ANOVA with post hoc Dunnett's or Bonferonni test to accommodate for multiple comparisons. A Student's t-test was used for two-group comparisons, as appropriate.” left out

Row | SMILES | phosphorylation pattern of tau (PP2A sensitive site) (tau; 5 mM AICAR, first 16 hours of treatment) | phosphorylation of tau (Ser202) (tau; AICAR, first 8 hours of treatment) | ACC phosphorylation (Ser79) (ACC) | phosphorylation at Ser202 (tau; 1 μM fostriecin alone over 4 hours)
1 | NC(=O)c1ncn([C@@H]2O[C@H](CO)[C@@H](O)[C@H]2O)c1N [AICAR] | did not find a significant effect | did not see an effect | significantly increased | –
2 | C[C@@](O)(/C=C/[C@H]1CC=CC(=O)O1)[C@@H](C[C@@H](O)\C=C/C=C\C=C\CO)OP(=O)(O)O [fostriecin] | – | – | – | increased
